One data set deals with sarcoma 180. As to the kind of experiment: Anti-tumor effect, sarcoma 180 subcutaneously transplanted in mouse. Format: in vivo. The settings on record: oral, once daily for 7 days, tumor weighed on 10th day. On the procedure:
(§1) Cells of Ehrlich carcinoma or sarcoma 180, 5 × 10^6 in number, are subcutaneously transplanted in a mouse. Twenty-four hours after the transplantation and during a subsequent period, the compound of this invention is orally given to the test animal once every day for 7 consecutive days. On the 10th day from the transplantation, the weight of tumor in the test animal is measured to determine the percentage of inhibition achieved by the compound relative to the weight of tumor in the control group.

Another data set deals with Ehrlich carcinoma. In words: Anti-tumor effect, Ehrlich carcinoma subcutaneously transplanted in mouse. It is filed as in vivo. The settings on record: oral, once daily for 7 days, tumor weighed on 10th day. On the procedure:
as §1

Data set [1] in a line: Acute toxicity, oral administration to mice, LD50 (method of Litchfield and Wilcoxon). Format: in vivo. The settings on record: mouse, in vivo; for LD50 at 336 h: checked 2 weeks later; for LD50 at 504 h: checked 3 weeks later; for LD50 at 72 h: checked 3 days later; for LD50 at 168 h: checked one week later, read-out: LD50, 1 Week. From the text: (§2) The compound of this invention is orally administered to mice, and the mice are checked 3 days, one week, 2 weeks and 3 weeks later for motality in terms of LD50 calculated according to the method of Litchfield and Wilcoxon.

The conditions of data set [2]: continued administration, clinical; cited from earlier work.
The next data set has as its system mice. In words: Acute toxicity, oral administration to mice, LD50 (method of Litchfield and Wilcoxon). It is filed as in vivo.
Text: as §2

The test system of a further data set is transplanted tumors. The settings on record: literature; cited from earlier work.

In the case of `CCCCOc1ncc(F)c(=O)[nH]1` [2-n-Butoxy-5-fluoropyrimidin-4-one, 2-n-butoxy-5-fluoropyrimidin-4-one], the “Inhibition percentage, sarcoma 180 (tumor weight relative to control)” value in the data set with sarcoma 180 (90 mg/kg/day) is on record as 62%. Also, in the data set with Ehrlich carcinoma (90 mg/kg/day), the “Inhibition percentage, Ehrlich carcinoma (tumor weight relative to control)” value is on record as 64%. Besides, in data set [1], the LD50 (usually the dose at which mortality reaches 50%) at 336 h came out at 945 mg/kg, the LD50 at 504 h came to 945 mg/kg, the LD50 at 72 h stood at 945 mg/kg and the LD50 at 168 h is 945 mg/kg.

Regarding `O=c1[nH]cc(F)c(=O)[nH]1` [5-Fluorouracil, 5-fluorouracil, reference compound], the “Inhibition percentage, sarcoma 180 (tumor weight relative to control)” value in the data set on sarcoma 180 (30 mg/kg/day) stood at 64%. For the same compound, the side effects result in data set [2] is “loss of appetite, stomatitis, nausea, vomiting and like gastrointestinal disorders, leukopenia, thrombocytopenia and like disorders in the blood, disorders in the liver and kidney”. The “Inhibition percentage, Ehrlich carcinoma (tumor weight relative to control)” value with Ehrlich carcinoma (30 mg/kg/day) is 61%. Moreover, in the data set with mice (checked 2 weeks later, 20160 min), the “LD50, 2 Weeks” value is reported as 145 mg/kg. Further, the “LD50, 1 Week” value in the data set on mice (checked one week later, 10080 min) stood at 200 mg/kg. Besides, the “inhibition of transplanted tumors” value with transplanted tumors is “found to inhibit transplanted tumors”.

Turning to `O=c1[nH]c(OCc2ccccc2)ncc1F` [2-Benzyloxy-5-fluoropyrimidin-4-one, 2-benzyloxy-5-fluoropyrimidin-4-one], in the data set on sarcoma 180 (90 mg/kg/day), the “Inhibition percentage, sarcoma 180 (tumor weight relative to control)” value came to 70%. Further, the “Inhibition percentage, Ehrlich carcinoma (tumor weight relative to control)” value in the data set on Ehrlich carcinoma (90 mg/kg/day) is recorded as 52%. Moreover, in data set [1], the LD50 at 336 h stood at 894 mg/kg, the LD50 at 504 h came to 894 mg/kg, the LD50 at 72 h came to 894 mg/kg and the LD50 at 168 h amounted to 894 mg/kg.

The values are drawn from patent US4092313A, “Preparation of 5-fluoropyrimidin-4-one derivatives” (Taisho Pharmaceutical Company Limited, priority 1975, dated 1978).
